Several values for one entry are separate records, joined by “and”; a condition that tells them apart may be missing. Equal values may be shown once. Read-outs that look alike come from different tables or passages of the source.
What was measured:
OTC = assay: JAK inhibitors at 0.3 and 3 μM in primary human hepatocytes, OTC mRNA fold change; type: cell-based; details: fold change vs DMSO
Description: (§1) Additional small molecules that inhibit JAK1, JAK2, JAK3, or a combination of the JAK proteins were tested in primary human hepatocytes as described in Example 2. JAK inhibitors were tested in triplicate at 0.3 μM and 3 μM. The results are shown as the fold change (mRNA FC) in the mRNA levels of OTC and CPS1 genes after treatment compared to an untreated control (DMSO) and the standard deviation (SD).

CPS1 [1] = assay: JAK inhibitors at 0.3 and 3 μM in primary human hepatocytes, CPS1 mRNA fold change; type: cell-based; details: fold change vs DMSO
Description: as §1

CPS1 [2] = assay: RNA-seq of compound-treated primary human hepatocytes, CPS1 expression; type: cell-based; details: primary human hepatocytes; for Relative CPS1 level vs Untreated (±Standard Deviation): triplicate (Table 19, FIG. 11); for CPS1 expression, Fold change (Log 2) vs untreated: RNA-seq
ASS1 = assay: RNA-seq of compound-treated primary human hepatocytes, ASS1 expression; type: cell-based; details: primary human hepatocytes; for Relative ASS1 level vs Untreated (±Standard Deviation): triplicate (Table 15, FIG. 7); for Fold change (Log 2) vs untreated, ASS1 expression: RNA-seq (Table 4)
ARG1 = assay: RNA-seq of compound-treated primary human hepatocytes, ARG1 expression; type: cell-based; details: for Relative ARGI level vs Untreated (±Standard Deviation) / Fold change (Log 2) vs untreated, ARG1 expression: primary human hepatocytes; for Relative ARGI level vs Untreated (±Standard Deviation): triplicate (Table 17, FIG. 9); for Fold change (Log 2) vs untreated, ARG1 expression: RNA-seq (Table 7)
SLC25A15 = assay: RNA-seq of compound-treated primary human hepatocytes, SLC25A15 expression; type: cell-based; details: for Relative SLC25A15 level vs Untreated (±Standard Deviation): triplicate (Table 24, FIG. 16A-B)
urea cycle genes = assay: RNA-seq of primary human hepatocytes, compounds that modulate multiple urea cycle-related genes; type: cell-based; details: primary human hepatocytes, RNA-seq; for Up-regulated Genes: urea cycle-related genes significantly increased (Table 10)
Description: To identify small molecules that modulate urea cycle enzymes, primary human hepatocytes were prepared as a monoculture, and at least one small molecule compound was applied to the cells.
RNA-seq was performed to determine the effects of the compounds on the expression of urea cycle enzymes in hepatocytes. Fold change was calculated by dividing the level of expression in the cell system that had been perturbed by the level of expression in an unperturbed system. Changes in expression having a p-value ≤0.05 were considered significant.
Significance was defined as an FPKM ≥1, a log 2 (fold change) ≥0.5, and a q-value of ≤0.05 for selected gene target.

NAGS = type: cell-based, human; details: for Relative NAGS level vs Untreated (±Standard Deviation): primary human hepatocytes, triplicate (Table 21, FIG. 13)
[3] = Example 11, relative mRNA vs DMSO
[4] = 3 μM, primary human hepatocytes
[5] = 10 μM, primary human hepatocytes

Molecule	OTC mRNA FC (OTC; 0.3 uM)	OTC mRNA FC (OTC; 3 uM)	CPS1 mRNA FC (CPS1 [1]; 0.3 uM)	CPS1 mRNA FC (CPS1 [1]; 3 uM)	other results
CCS(=O)(=O)N1CC(CC#N)(n2cc(-c3ncnc4[nH]ccc34)cn2)C1 [Baricitinib]	2.56	2.85	1.4	1.38	–
CCn1c(C(=O)N(C2CC2)C2CC2)cc2c3c(ncn3C)c(Nc3cc(C)n(C)n3)nc21 [BMS-911543]	1.94	2.7	1.31 and 1.03	1.65	–
CC[C@@](C)(Nc1ccnc(-c2c[nH]c3ncccc23)n1)C(=O)NCC(F)(F)F [Decernotinib]	1.01	2.18	1.07	1.28	–
Cc1cc(Nc2cc(CN3CCOCC3)c3nc(C)c(Cc4ccc(Cl)cc4F)n3n2)n[nH]1 [LYS2784544]	1.98	3.67	1.3	1.6	–
CC(=O)NCC(=O)N1[C@@H]2CC[C@H]1c1ccc(Nc3ncc(C(F)(F)F)c(NC4CCC4)n3)cc12 [PF-3814735]	–	–	–	–	Relative CPS1 level vs Untreated (±Standard Deviation) (CPS1 [2]; 3 μM): 2.25 ± 0.74; Relative ASS1 level vs Untreated (±Standard Deviation) (ASS1; 10 μM): 1.56 ± 0.17; Relative ARGI level vs Untreated (±Standard Deviation) (ARG1; 1 μM): 1.44 ± 0.02; Relative ARGI level vs Untreated (±Standard Deviation) (ARG1; 3 μM): 2.45 ± 0.43; increase in ARG1 gene expression (Tables 17, 18, FIG. 9, 10) (ARG1; [3]): greatest increase; Relative SLC25A15 level vs Untreated (±Standard Deviation) (SLC25A15; 1 μM, primary human hepatocytes): 1.35 ± 0.11; Relative SLC25A15 level vs Untreated (±Standard Deviation) (SLC25A15; [4]): 3.06 ± 0.51; Relative SLC25A15 level vs Untreated (±Standard Deviation) (SLC25A15; [5]): 2.41 ± 0.14; Increase in SLC25A15 gene expression (qualitative) (SLC25A15; [3]): greatest increase
N#CC[C@H](C1CCCC1)n1cc(-c2ncnc3[nH]ccc23)cn1 [ruxolitinib]	2.65	4.17	1.66	1.79	–
O=C(NCCCNc1nc(Nc2cccc(NC(=O)N3CCCC3)c2)ncc1I)c1cccs1 [BX795]	–	–	–	–	Relative CPS1 level vs Untreated (±Standard Deviation) (CPS1 [2]; 3 μM): 1.75 ± 1.03; Relative ARGI level vs Untreated (±Standard Deviation) (ARG1; 3 μM): 1.33 ± 0.43; Relative ARGI level vs Untreated (±Standard Deviation) (ARG1; 10 μM): 1.34 ± 0.41
S=C(NCc1ccc2c(c1)OCO2)N1CCN(c2ncnc3c2oc2ccccc23)CC1 [Amuvatinib]	–	–	–	–	Relative CPS1 level vs Untreated (±Standard Deviation) (CPS1 [2]; 10 μM): 2.07 ± 0.42; Fold change (Log 2) vs untreated, ASS1 expression (ASS1): 0.69 Log 2; Relative ARGI level vs Untreated (±Standard Deviation) (ARG1; 10 μM): 1.71 ± 0.19; Fold change (Log 2) vs untreated, ARG1 expression (ARG1): 2.5 Log 2; number of urea cycle genes whose expression was significantly up-regulated (urea cycle genes): five; Up-regulated Genes (urea cycle genes): CPS1, ASS1, ASL, OTC, ARG1
Cc1cnc(Nc2ccc(OCCN3CCCC3)cc2)nc1Nc1cccc(S(=O)(=O)NC(C)(C)C)c1 [Fedratinib]	1.09	1.49	0.93	0.95	–
O=C(Nc1ccc(-c2ccnc(Nc3ccc(N4CCOCC4)cc3)n2)cc1)C1CCCN1 (stereo not shown) [XL019]	1.09	1.02	0.91	0.81	–
CCc1cc(O)c(F)cc1-c1ccc2c(-c3nc4c([nH]3)CCN(C(=O)c3cnc(N5CCCCC5)cn3)C4)n[nH]c2c1 [PF-06263276]	1.16	1.46	1.05	1.03	–
C[C@]12CC[C@H]3[C@@H](CCC4=CC(=O)CC[C@@]43C)[C@@H]1CC[C@@H]2C(=O)CO [Deoxycorticosterone]	–	–	–	–	CPS1 expression, Fold change (Log 2) vs untreated (CPS1 [2]): 3.79 Log 2; Fold change (Log 2) vs untreated, ASS1 expression (ASS1): 0.6 Log 2; Fold change (Log 2) vs untreated, ARG1 expression (ARG1): 1.37 Log 2; number of urea cycle genes whose expression was significantly up-regulated (urea cycle genes): four; Up-regulated Genes (urea cycle genes): CPS1, ASS1, ARG1, SLC25A15
NC(=O)c1cnc2[nH]ccc2c1N[C@@H]1[C@@H]2CC3C[C@H]1C[C@@](O)(C3)C2 [Peficitinib]	2.38	3.49	1.31	2.28	–
CN1C/C=C/CCOc2cccc(c2)-c2ccnc(n2)Nc2cccc(c2)C1 [SB1317/TG02]	1.05	0.64	1.05	1.03	Relative ASS1 level vs Untreated (±Standard Deviation) (ASS1; 1 μM): 1.34 ± 0.12; Relative ASS1 level vs Untreated (±Standard Deviation) (ASS1; 3 μM): 1.90 ± 0.19; Relative ASS1 level vs Untreated (±Standard Deviation) (ASS1; 10 μM): 1.92 ± 0.18; Relative SLC25A15 level vs Untreated (±Standard Deviation) (SLC25A15; 0.3 μM, primary human hepatocytes): 1.36 ± 0.24; Relative SLC25A15 level vs Untreated (±Standard Deviation) (SLC25A15; [4]): 2.70 ± 0.34; Relative SLC25A15 level vs Untreated (±Standard Deviation) (SLC25A15; [5]): 2.71 ± 0.09
CCN(CC)CCCCNc1ncc2cc(-c3cc(OC)cc(OC)c3)c(NC(=O)NC(C)(C)C)nc2n1 [PD173074]	–	–	–	–	Relative CPS1 level vs Untreated (±Standard Deviation) (CPS1 [2]; 3 μM): 1.35 ± 0.03; Relative NAGS level vs Untreated (±Standard Deviation) (NAGS; 10 μM): 1.30 ± 0.31; Relative SLC25A15 level vs Untreated (±Standard Deviation) (SLC25A15; [4]): 1.30 ± 0.12
NC(=O)c1ccc(I)c([N+](=O)[O-])c1 [Iniparib]	–	–	–	–	Relative CPS1 level vs Untreated (±Standard Deviation) (CPS1 [2]; 3 μM): 1.44 ± 0.01; Relative NAGS level vs Untreated (±Standard Deviation) (NAGS; 0.3 μM): 1.41 ± 0.00; Relative ARGI level vs Untreated (±Standard Deviation) (ARG1; 3 μM): 1.32 ± 0.15
COc1cc2c(Oc3ccc(NC(=O)C4(C(=O)Nc5ccc(F)cc5)CC4)cc3F)ccnc2cc1OCCCN1CCOCC1 [Foretinib]	–	–	–	–	Relative CPS1 level vs Untreated (±Standard Deviation) (CPS1 [2]; 3 μM): 1.37 ± 0.30; Relative CPS1 level vs Untreated (±Standard Deviation) (CPS1 [2]; 10 μM): 1.75 ± 0.30; Relative ASS1 level vs Untreated (±Standard Deviation) (ASS1; 10 μM): 1.82 ± 0.11; Relative NAGS level vs Untreated (±Standard Deviation) (NAGS; 10 μM): 1.45 ± 0.38; Relative ARGI level vs Untreated (±Standard Deviation) (ARG1; 3 μM): 1.40 ± 0.00; Relative ARGI level vs Untreated (±Standard Deviation) (ARG1; 10 μM): 1.61 ± 0.12; Relative SLC25A15 level vs Untreated (±Standard Deviation) (SLC25A15; [5]): 1.97 ± 0.15
N#CCC1(n2cc(-c3ncnc4[nH]ccc34)cn2)CN(C2CCN(C(=O)c3ccnc(C(F)(F)F)c3F)CC2)C1 [itacitinib]	3.56	3.41	1.84	2.17	–
CCS(=O)(=O)N1CCN(c2ccc(Nc3ncc(C(N)=O)c(NC4CC4)n3)cc2)CC1 [cerdulatinib]	2.56	1.89	1.58	2.39	–
COc1cc2ncnc(Nc3ccc(O)cc3)c2cc1OC [JANEX-1]	0.85	1.1	0.86	1.01	–
O=C(Nc1nc2cccc(-c3ccc(CN4CCS(=O)(=O)CC4)cc3)n2n1)C1CC1 [GLPG0634/Filgotinib]	1.12	2.11	1.08	1.56	–
Cc1cc(Nc2cc(CN3CCOCC3)c3nc(C)c(Cc4ccc(Cl)cc4F)n3n2)n[nH]1 [LY2784544/gandotinib]	1.19	1.63	1.11	1.39	–
GDF2 (BMP9): member of BMP family and the TGF-B superfamily (protein, UniProt Q9UK05 320-429, looked up) Growth/differentiation factor …: SAGAGSHCQKTSLRVNFEDIGWDSWIIAPKEYEAYECKGGCFFPLADDVTPTKHAIVQTLVHLKFPTKVGKACCVPTKLSPISVLYKDDMGVPTLKYHYEGMSVAECGCR	–	–	–	–	CPS1 expression, Fold change (Log 2) vs untreated (CPS1 [2]): 3.46 Log 2; Fold change (Log 2) vs untreated, ASS1 expression (ASS1): 1.34 Log 2; Fold change (Log 2) vs untreated, NAGS expression (NAGS): 0.63 Log 2; Fold change (Log 2) vs untreated, ARG1 expression (ARG1): 1.79 Log 2; Fold change (Log 2) vs untreated, SLC25A15 expression (SLC25A15; primary human hepatocytes, RNA-seq (Table 8)): 1.09 Log 2; number of urea cycle genes whose expression was significantly up-regulated (urea cycle genes): five; Up-regulated Genes (urea cycle genes): ASS1, CPS1, NAGS, ARG1, SLC25A15

Reference: US11266655B2, “Methods and compositions for treating urea cycle disorders” (Camp4 Therapeutics Corporation, priority 2019, dated 2022)
